Active and inactive are the calls of the source. The rule behind the calls is not given here. Starred links: 1 amine or outer side, 2 acyl side, 3 side chain; linkers in the order of their positions; H or OH if unused. Residues, ends and D or L forms follow the SMILES beside them. *: point of attachment. X1 = CC(=O)O[C@H]1C(=O)[C@@]2(C)[C@H]([C@H](OC(=O)c3ccccc3)[C@]3(O)C[C@H](OC(=O)[C@H](OC(=O)CCCCCN4C(=O)CC(*)C4=O)[C@@H](NC(=O)c4ccccc4)c4ccccc4)C(C)=C1C3(C)C)[C@]1(OC(C)=O)CO[C@@H]1C[C@@H]2O; Pteroyl = Nc1nc2ncc(CNc3ccc(C(=O)*)cc3)nc2c(=O)[nH]1; γGlu = O=C(O)[C@H](CCC(=O)[*:2])N[*:1]
Key:
MCF7/PTX [1] = experiment: Induction of membrane disruption in human MCF7/PTX cells incubated for 12 hrs by LDH release assay; type: functional, cell-based
MCF7/PTX [2] = experiment: Induction of apoptosis in human MCF7/PTX cells assessed as early apoptotic cells at 4 uM incubated for 12 hrs by Annexin V-FITC/propidium iodide staining based flow cytometric analysis (reference value: 1.1%); type: functional
MCF7/PTX [3] = experiment: Induction of apoptosis in human MCF7/PTX cells assessed as live cells at 4 uM incubated for 12 hrs by Annexin V-FITC/propidium iodide staining based flow cytometric analysis (reference value: 95.9%); type: functional
MCF7/PTX [4] = experiment: Induction of apoptosis in human MCF7/PTX cells assessed as necrotic cells at 2 uM incubated for 12 hrs by Annexin V-FITC/propidium iodide staining based flow cytometric analysis (reference value: 2.1%); type: functional
MCF7/PTX [5] = experiment: Induction of apoptosis in human MCF7/PTX cells assessed as late apoptotic cells at 2 uM incubated for 12 hrs by Annexin V-FITC/propidium iodide staining based flow cytometric analysis (reference value: 0.9%); type: functional
MCF7/PTX [6] = experiment: Induction of apoptosis in human MCF7/PTX cells assessed as early apoptotic cells at 2 uM incubated for 12 hrs by Annexin V-FITC/propidium iodide staining based flow cytometric analysis (reference value: 1.1%); type: functional
MCF7/PTX [7] = experiment: Induction of apoptosis in human MCF7/PTX cells assessed as live cells at 2 uM incubated for 12 hrs by Annexin V-FITC/propidium iodide staining based flow cytometric analysis (reference value: 95.9%); type: functional
MCF7/PTX [8] = experiment: Induction of apoptosis in human MCF7/PTX cells assessed as necrotic cells at 1 uM incubated for 12 hrs by Annexin V-FITC/propidium iodide staining based flow cytometric analysis (reference value: 2.1%); type: functional
MCF7/PTX [9] = experiment: Induction of apoptosis in human MCF7/PTX cells assessed as late apoptotic cells at 1 uM incubated for 12 hrs by Annexin V-FITC/propidium iodide staining based flow cytometric analysis (reference value: 0.9%); type: functional
MCF7/PTX [10] = experiment: Induction of apoptosis in human MCF7/PTX cells assessed as early apoptotic cells at 1 uM incubated for 12 hrs by Annexin V-FITC/propidium iodide staining based flow cytometric analysis (reference value: 1.1%); type: functional
MCF7/PTX [11] = experiment: Induction of apoptosis in human MCF7/PTX cells assessed as live cells at 1 uM incubated for 12 hrs by Annexin V-FITC/propidium iodide staining based flow cytometric analysis (reference value: 95.9%); type: functional
MCF7/PTX [12] = experiment: Induction of apoptosis in human MCF7/PTX cells assessed as late apoptotic cells at 3 uM incubated for 12 hrs by Annexin V-FITC/propidium iodide staining based flow cytometric analysis (reference value: 0.9%); type: functional
MCF7 = experiment: Cytotoxicity against human MCF7 cells incubated for 48 hrs by MTT assay; type: functional, cell-based; settings: MCF7, 48 h
MCF7/PTX [13] = experiment: Cytotoxicity against human MCF7/PTX cells incubated for 48 hrs by MTT assay; type: functional, cell-based
K562 = experiment: Cytotoxicity against human K562 cells incubated for 48 hrs by MTT assay; type: functional, cell-based; settings: K562, 48 h
A2780 = experiment: Cytotoxicity against human A2780 cells incubated for 48 hrs by MTT assay; type: functional, cell-based; settings: A2780, 48 h
SK-OV-3 = experiment: Cytotoxicity against human SKOV3 cells incubated for 48 hrs by MTT assay; type: functional, cell-based; settings: SK-OV-3, 48 h
MCF7/PTX [14] = experiment: Induction of apoptosis in human MCF7/PTX cells assessed as necrotic cells at 0.5 uM incubated for 12 hrs by Annexin V-FITC/propidium iodide staining based flow cytometric analysis (reference value: 2.1%); type: functional
HUVEC = experiment: Cytotoxicity against HUVEC incubated for 48 hrs by MTT assay; type: cell-based; settings: Homo sapiens
MCF7/PTX [15] = experiment: Induction of apoptosis in human MCF7/PTX cells assessed as late apoptotic cells at 0.5 uM incubated for 12 hrs by Annexin V-FITC/propidium iodide staining based flow cytometric analysis (reference value: 0.9%); type: functional
MCF7/PTX [16] = experiment: Induction of apoptosis in human MCF7/PTX cells assessed as early apoptotic cells at 0.5 uM incubated for 12 hrs by Annexin V-FITC/propidium iodide staining based flow cytometric analysis (reference value: 1.1%); type: functional
MCF7/PTX [17] = experiment: Induction of apoptosis in human MCF7/PTX cells assessed as live cells at 0.5 uM incubated for 12 hrs by Annexin V-FITC/propidium iodide staining based flow cytometric analysis (reference value: 95.9%); type: functional
MCF7/PTX [18] = experiment: Induction of apoptosis in human MCF7/PTX cells assessed as necrotic cells at 3 uM incubated for 12 hrs by Annexin V-FITC/propidium iodide staining based flow cytometric analysis (reference value: 2.1%); type: functional
MCF7/PTX [19] = experiment: Induction of apoptosis in human MCF7/PTX cells assessed as live cells at 3 uM incubated for 12 hrs by Annexin V-FITC/propidium iodide staining based flow cytometric analysis (reference value: 95.9%); type: functional
MCF7/PTX [20] = experiment: Induction of apoptosis in human MCF7/PTX cells assessed as early apoptotic cells at 3 uM incubated for 12 hrs by Annexin V-FITC/propidium iodide staining based flow cytometric analysis (reference value: 1.1%); type: functional
Erythrocyte = experiment: Hemolytic activity in Wistar rat erythrocytes incubated for 1 hr; type: ADME, cell-based
MCF7/PTX [21] = experiment: Induction of membrane disruption in human MCF7/PTX cells at 3 uM incubated for 12 hrs by AO/EB double staining based fluorescence microscopic method; type: functional, cell-based
MCF7/PTX [22] = experiment: Induction of apoptosis in human MCF7/PTX cells assessed as late apoptotic cells at 4 uM incubated for 12 hrs by Annexin V-FITC/propidium iodide staining based flow cytometric analysis (reference value: 0.9%); type: functional
MCF7/PTX [23] = experiment: Induction of apoptosis in human MCF7/PTX cells assessed as necrotic cells at 4 uM incubated for 12 hrs by Annexin V-FITC/propidium iodide staining based flow cytometric analysis (reference value: 2.1%); type: functional
MCF7/PTX [24] = experiment: Induction of apoptosis in human MCF7/PTX cells assessed as live cells at 6 uM incubated for 12 hrs by Annexin V-FITC/propidium iodide staining based flow cytometric analysis (reference value: 95.9%); type: functional
MCF7/PTX [25] = experiment: Induction of apoptosis in human MCF7/PTX cells assessed as early apoptotic cells at 6 uM incubated for 12 hrs by Annexin V-FITC/propidium iodide staining based flow cytometric analysis (reference value: 1.1%); type: functional
MCF7/PTX [26] = experiment: Induction of apoptosis in human MCF7/PTX cells assessed as late apoptotic cells at 6 uM incubated for 12 hrs by Annexin V-FITC/propidium iodide staining based flow cytometric analysis (reference value: 0.9%); type: functional
MCF7/PTX [27] = experiment: Induction of apoptosis in human MCF7/PTX cells assessed as necrotic cells at 6 uM incubated for 12 hrs by Annexin V-FITC/propidium iodide staining based flow cytometric analysis (reference value: 2.1%); type: functional
MCF7/PTX [28] = experiment: Induction of mitochondrial membrane potential loss in human MCF7/PTX cells at 3 uM incubated for 12 hrs by JC1 staining-based confocal microscopic method; type: functional, cell-based
MCF7/PTX [29] = experiment: Induction of apoptosis in human MCF7/PTX cells assessed as increase in cleaved caspase 3 level in cytoplasm at 3 uM incubated for 2 hrs by Western blot analysis; type: functional, cell-based
MCF7/PTX [30] = experiment: Induction of apoptosis in human MCF7/PTX cells assessed increase in cytochrome-c expression in cytoplasm at 3 uM incubated for 2 hrs by Western blot analysis; type: functional, cell-based
Tubulin (Sus scrofa) = Tubulin (Sus scrofa) (UniProt P02554+P02550); experiment: Induction of porcine brain tubulin polymerization at 3 uM by fluorescence analysis
[31] = Half life in Wistar rat plasma at 500 ug/ml measured over 24 hrs at 37 degC by UPLC/MS analysis; type: ADME, cell-free
[32] = Antitumor activity against […] cells xenografted in ICR mouse assessed as reduction in tumor volume at 12 umol/kg administered once every 2 days via peritumoral route for 2 weeks measured for 22 days by caliper analysis relative to control; type: functional
[33] = Toxicity in ICR mouse xenografted with […] H22 cells assessed as change in body weight at 12 umol/kg administered once every 2 days via peritumoral route for 2 weeks; settings: in vivo, other
MCF7/PTX [34] = experiment: Induction of apoptosis in human MCF7/PTX cells incubated for 12 hrs by Annexin V-FITC/propidium iodide staining-based flow cytometric analysis; type: functional, cell-based
MCF7/PTX [35] = experiment: Induction of membrane disruption in human MCF7/PTX cells incubated for 12 hrs by AO/EB double-staining based fluorescence microscopic method; type: functional, cell-based
[36] = Solubility of the compound in water; type: physicochemical

Tubulin (Sus scrofa), sequence (P02550 whole entry, looked up): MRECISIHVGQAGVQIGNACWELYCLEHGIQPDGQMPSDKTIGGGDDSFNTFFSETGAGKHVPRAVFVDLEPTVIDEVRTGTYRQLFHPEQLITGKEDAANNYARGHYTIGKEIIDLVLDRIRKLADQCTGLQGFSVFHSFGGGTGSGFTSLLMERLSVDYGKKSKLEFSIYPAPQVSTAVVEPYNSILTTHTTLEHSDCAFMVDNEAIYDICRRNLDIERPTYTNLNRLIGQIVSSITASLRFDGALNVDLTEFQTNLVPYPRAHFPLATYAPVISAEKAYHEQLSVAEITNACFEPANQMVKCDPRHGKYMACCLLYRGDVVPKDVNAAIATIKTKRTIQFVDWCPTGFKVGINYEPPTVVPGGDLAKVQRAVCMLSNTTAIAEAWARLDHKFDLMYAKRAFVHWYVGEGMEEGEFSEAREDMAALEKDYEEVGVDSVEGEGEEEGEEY
Tubulin (Sus scrofa), sequence (P02554 whole entry, looked up): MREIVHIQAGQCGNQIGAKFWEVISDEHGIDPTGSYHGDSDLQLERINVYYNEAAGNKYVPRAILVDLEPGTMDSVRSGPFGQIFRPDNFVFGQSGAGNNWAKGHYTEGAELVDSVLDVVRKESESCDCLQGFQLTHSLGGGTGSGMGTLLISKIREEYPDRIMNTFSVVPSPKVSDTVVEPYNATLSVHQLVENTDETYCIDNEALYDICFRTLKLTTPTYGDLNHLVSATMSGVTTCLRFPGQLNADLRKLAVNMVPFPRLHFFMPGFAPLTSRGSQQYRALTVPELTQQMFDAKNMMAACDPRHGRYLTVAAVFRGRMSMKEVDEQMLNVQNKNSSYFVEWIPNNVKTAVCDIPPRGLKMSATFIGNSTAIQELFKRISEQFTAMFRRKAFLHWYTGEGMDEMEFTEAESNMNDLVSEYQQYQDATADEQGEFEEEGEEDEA

CC(=O)O[C@H]1C(=O)[C@@]2(C)[C@H]([C@H](OC(=O)c3ccccc3)[C@]3(O)C[C@H](OC(=O)[C@H](OC(=O)CCCCCN4C(=O)CC(SC[C@H](NC(=O)[C@H](CCCNC(=N)N)NC(=O)[C@H](CCCNC(=N)N)NC(=O)[C@H](CC(C)C)NC(=O)[C@H](CCCNC(=N)N)NC(=O)[C@H](CCCNC(=N)N)NC(=O)[C@H](Cc5ccccc5)NC(=O)[C@H](Cc5ccccc5)NC(=O)[C@H](CCCNC(=N)N)NC(=O)[C@H](CCCNC(=N)N)NC(=O)[C@H](Cc5ccccc5)NC(=O)[C@H](CCCNC(=N)N)NC(=O)[C@H](CCCNC(=N)N)NC(=O)[C@@H](NC(=O)[C@H](CC(C)C)NC(=O)CC[C@H](NC(=O)c5ccc(NCc6cnc7nc(N)[nH]c(=O)c7n6)cc5)C(=O)O)C(C)C)C(=O)N[C@H](C(=O)N[C@@H](CC(C)C)C(=O)N[C@@H](CC(C)C)C(N)=O)C(C)C)C4=O)[C@@H](NC(=O)c4ccccc4)c4ccccc4)C(C)=C1C3(C)C)[C@]1(OC(C)=O)CO[C@@H]1C[C@@H]2O (stereo partly drawn) ({Pteroyl-γGlu}-LVRRFRRFFRRLRRC(X1)VLL-NH2)
Activity (MCF7/PTX [1]): Dose-dependent effect
Activity (MCF7/PTX [2]): 1.4%
Activity (MCF7/PTX [3]): 28.8%
Activity (MCF7/PTX [4]): 3.9%
Activity (MCF7/PTX [5]): 28.8%
Activity (MCF7/PTX [6]): 1.5%
Activity (MCF7/PTX [7]): 65.8%
Activity (MCF7/PTX [8]): 5.6%
Activity (MCF7/PTX [9]): 11.4%
Activity (MCF7/PTX [10]): 1.6%
Activity (MCF7/PTX [11]): 81.4%
Activity (MCF7/PTX [12]): 41.6%
IC50 (MCF7): 1.39 µM
IC50 (MCF7/PTX [13]): 2.92 µM
IC50 (K562): 3.85 µM
IC50 (A2780): 1.42 µM
IC50 (SK-OV-3): 5.49 µM
Activity (MCF7/PTX [14]): 7.1%
IC50 (HUVEC): 45.2 µM
Activity (MCF7/PTX [15]): 7.4%
Activity (MCF7/PTX [16]): 2.4%
Activity (MCF7/PTX [17]): 83.1%
Activity (MCF7/PTX [18]): 5.6%
Activity (MCF7/PTX [19]): 51.6%
Activity (MCF7/PTX [20]): 1.2%
Activity (Erythrocyte): Toxic
Activity (MCF7/PTX [21]): Active
Activity (MCF7/PTX [22]): 54.6%
Activity (MCF7/PTX [23]): 15.1%
Activity (MCF7/PTX [24]): 29.2%
Activity (MCF7/PTX [25]): 1.3%
Activity (MCF7/PTX [26]): 62%
Activity (MCF7/PTX [27]): 7.5%
Activity (MCF7/PTX [28]): Active
Activity (MCF7/PTX [29]): Active
Activity (MCF7/PTX [30]): Active
Activity (Tubulin (Sus scrofa)): Active
half-life at 500 ug/ml [31]: 5.9 h
inhibition in vivo at 12 µmol/kg [32]: 69%
Activity [33]: Non-Toxic
Activity (MCF7/PTX [34]): Dose-dependent effect
Activity (MCF7/PTX [35]): Dose-dependent effect
solubility [36]: > 20 mg/mL
